# In BindingDB's records for doi:10.1021/jm00169a008 (Tsukuba Research Laboratories, 1990):
# Counter-ions that a name gives are not always drawn.
# Target: T1, Acetylcholinesterase (Mus musculus, UniProt P21836)
# T1 sequence (P21836 whole entry): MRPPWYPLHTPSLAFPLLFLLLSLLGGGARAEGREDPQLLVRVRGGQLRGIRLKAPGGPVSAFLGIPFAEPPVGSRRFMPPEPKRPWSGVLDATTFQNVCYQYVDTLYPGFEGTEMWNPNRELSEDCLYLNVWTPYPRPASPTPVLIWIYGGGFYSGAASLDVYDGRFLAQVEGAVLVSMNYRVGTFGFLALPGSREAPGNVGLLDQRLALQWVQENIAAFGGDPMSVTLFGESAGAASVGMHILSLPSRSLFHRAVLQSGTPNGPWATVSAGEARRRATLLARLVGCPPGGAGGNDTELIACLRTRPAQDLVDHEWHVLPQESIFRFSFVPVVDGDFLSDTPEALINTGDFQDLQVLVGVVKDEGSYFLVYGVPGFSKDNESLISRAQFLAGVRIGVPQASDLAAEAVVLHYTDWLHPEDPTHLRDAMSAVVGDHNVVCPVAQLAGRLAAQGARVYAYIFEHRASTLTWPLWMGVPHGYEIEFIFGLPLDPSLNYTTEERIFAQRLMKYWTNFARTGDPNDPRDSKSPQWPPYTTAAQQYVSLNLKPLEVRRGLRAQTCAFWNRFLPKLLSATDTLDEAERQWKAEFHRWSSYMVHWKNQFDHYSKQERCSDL
# Test: Enzyme Inhibition Assay
row,Structure (SMILES),IC50 [µM]
1,Cc1cccc(CN2CCC(CCN(C)C(=O)c3ccccc3)CC2)c1,0.145
2,CN(CCC1CCNCC1)C(=O)c1ccccc1 [(2E)-but-2-enedioic acid; N-methyl-N-[2-(piperidin-4-yl)ethyl]benzamide],26
3,CN(CCC1CCN(C(=O)c2ccccc2)CC1)C(=O)c1ccccc1 [N-[2-(1-benzoylpiperidin-4-yl)ethyl]-N-methylbenzamide],52
4,Cc1ccccc1CN1CCC(CCN(C)C(=O)c2ccccc2)CC1 [N-methyl-N-(2-{1-[(2-methylphenyl)methyl]piperidin-4-yl}ethyl)benzamide hydrochloride],0.77
5,CN(CCC1CCN(Cc2cccc([N+](=O)[O-])c2)CC1)C(=O)c1ccccc1 [N-methyl-N-(2-{1-[(3-nitrophenyl)methyl]piperidin-4-yl}ethyl)benzamide hydrochloride],0.37
6,CN(CCC1CCN(Cc2ccc([N+](=O)[O-])cc2)CC1)C(=O)c1ccccc1 [N-methyl-N-(2-{1-[(4-nitrophenyl)methyl]piperidin-4-yl}ethyl)benzamide hydrochloride],3.3
7,CN(CCC1CCN(CCc2ccccc2)CC1)C(=O)c1ccccc1 [N-methyl-N-{2-[1-(2-phenylethyl)piperidin-4-yl]ethyl}benzamide hydrochloride],13
